We go through six compounds from ChEMBL document CHEMBL1149398, “Pyrrolizidine esters and amides as 5-HT4 receptor agonists and antagonists” (J Med Chem, 2006).

One series deals with D(1A) dopamine receptor (Homo sapiens, UniProt P21728). Briefly: Binding affinity to dopamine receptor D1.
Series [1] concerns the target Beta-2 adrenergic receptor (Homo sapiens, UniProt P07550). The series can be described thus: Binding affinity to adrenergic beta-2 receptor.
The target of series [2] is 5-hydroxytryptamine receptor 4 (Cavia porcellus, UniProt O70528). The series can be described thus: Displacement of [3H]GR-113808 from 5HT4 receptor in guinea pig striatum.
5-hydroxytryptamine receptor 4 (Cavia porcellus, UniProt O70528), sequence (O70528 whole entry): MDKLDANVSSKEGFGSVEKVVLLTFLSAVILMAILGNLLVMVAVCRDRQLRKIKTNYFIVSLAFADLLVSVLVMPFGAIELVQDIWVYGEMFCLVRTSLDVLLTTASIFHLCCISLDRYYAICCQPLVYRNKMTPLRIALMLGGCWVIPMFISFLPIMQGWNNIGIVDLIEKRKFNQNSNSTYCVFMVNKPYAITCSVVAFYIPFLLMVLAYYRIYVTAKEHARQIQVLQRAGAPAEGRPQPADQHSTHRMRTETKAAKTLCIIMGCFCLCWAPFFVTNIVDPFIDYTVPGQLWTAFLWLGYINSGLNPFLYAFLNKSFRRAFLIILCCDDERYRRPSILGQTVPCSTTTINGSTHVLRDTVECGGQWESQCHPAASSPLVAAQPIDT
The target in series [3] is T1, 5-hydroxytryptamine receptor 4 (Rattus norvegicus, UniProt Q62758). The series can be described thus: Agonism at 5HT4 receptor in rat tunica muscularis mucosa. It counts as functional.
T1 sequence (Q62758 whole entry): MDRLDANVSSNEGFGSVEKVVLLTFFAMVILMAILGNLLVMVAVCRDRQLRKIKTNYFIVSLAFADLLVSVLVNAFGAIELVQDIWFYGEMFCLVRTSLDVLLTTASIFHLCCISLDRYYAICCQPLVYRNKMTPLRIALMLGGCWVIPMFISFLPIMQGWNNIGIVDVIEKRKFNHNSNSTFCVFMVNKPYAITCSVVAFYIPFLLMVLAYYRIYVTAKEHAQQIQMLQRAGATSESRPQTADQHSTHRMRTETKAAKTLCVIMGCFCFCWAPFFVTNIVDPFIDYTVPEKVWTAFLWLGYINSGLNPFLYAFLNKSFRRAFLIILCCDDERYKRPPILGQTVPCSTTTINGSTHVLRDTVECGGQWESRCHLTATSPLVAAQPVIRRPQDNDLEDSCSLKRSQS
For series [4], the target named is T2, Serotonin 3 receptor (5HT3) (Mus musculus) (UniProt Q9JHJ5+P23979). The series can be described thus: Antagonism at 5HT3 receptor in mice by von Bezold-Jarisch reflex inhibition at 10 mg/kg, ip. It counts as functional, organism-based. Also noted: dose 10 mg/kg.
T2 sequence (P23979 whole entry, looked up): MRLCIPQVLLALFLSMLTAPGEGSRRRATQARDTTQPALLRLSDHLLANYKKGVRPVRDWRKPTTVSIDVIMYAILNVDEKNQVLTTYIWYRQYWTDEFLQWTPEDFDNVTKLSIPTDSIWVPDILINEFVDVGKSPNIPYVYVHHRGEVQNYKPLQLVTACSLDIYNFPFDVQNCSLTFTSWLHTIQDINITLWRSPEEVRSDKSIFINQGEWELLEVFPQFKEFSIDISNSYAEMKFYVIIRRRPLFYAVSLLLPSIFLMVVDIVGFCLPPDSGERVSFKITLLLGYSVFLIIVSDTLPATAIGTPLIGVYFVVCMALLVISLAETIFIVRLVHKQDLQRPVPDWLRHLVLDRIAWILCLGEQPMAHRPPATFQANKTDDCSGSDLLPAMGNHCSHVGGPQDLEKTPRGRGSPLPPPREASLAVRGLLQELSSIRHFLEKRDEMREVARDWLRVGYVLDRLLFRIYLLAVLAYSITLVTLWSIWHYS
T2 sequence (Q9JHJ5 whole entry, looked up): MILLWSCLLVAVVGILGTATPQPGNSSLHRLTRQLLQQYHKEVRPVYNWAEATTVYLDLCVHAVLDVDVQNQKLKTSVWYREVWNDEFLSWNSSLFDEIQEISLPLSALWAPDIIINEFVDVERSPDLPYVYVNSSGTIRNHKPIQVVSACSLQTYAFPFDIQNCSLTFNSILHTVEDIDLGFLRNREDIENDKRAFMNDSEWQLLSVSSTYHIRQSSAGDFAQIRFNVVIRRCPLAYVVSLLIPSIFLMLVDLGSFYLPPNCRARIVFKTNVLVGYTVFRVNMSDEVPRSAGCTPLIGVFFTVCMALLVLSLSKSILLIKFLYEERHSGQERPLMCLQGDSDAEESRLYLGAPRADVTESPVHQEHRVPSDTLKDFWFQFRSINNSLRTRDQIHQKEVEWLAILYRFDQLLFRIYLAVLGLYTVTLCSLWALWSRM
The target in series [5] is T2, Serotonin 3 receptor (5HT3) (Mus musculus). The series can be described thus: Antagonism at 5HT3 receptor in mice by von Bezold-Jarisch reflex inhibition at 3 mg/kg, ip. Also noted: dose 3 mg/kg. It counts as functional, organism-based.
Series [6] shares this target. Briefly: Antagonism at 5HT3 receptor in mice by von Bezold-Jarisch reflex inhibition at 1 mg/kg, ip. The format is functional, organism-based. On the set-up: dose 1 mg/kg.
The test system of series [7] is Salmonella typhi. Briefly: Mutagenic activity in a GLP study using Salmonella Typhimurium TA1535 in presence of S9 fraction at 7.2-3600 ug/plate. The format is toxicity, organism-based. The following applies: salmonella enterica subsp. enterica […].
For series [8], the system named is Salmonella typhi. Briefly: Mutagenic activity in a GLP study using Salmonella Typhimurium TA100 in presence of S9 fraction at 7.2-3600 ug/plate. It counts as toxicity, organism-based. To be noted: salmonella enterica subsp. enterica […].
For series [9], the system named is Salmonella typhi. The series can be described thus: Mutagenic activity in a GLP study using Salmonella Typhimurium TA1538 in presence of S9 fraction at 7.2-3600 ug/plate. It counts as toxicity, organism-based. To be noted: salmonella enterica subsp. enterica […].
The test system of series [10] is Salmonella typhi. Briefly: Mutagenic activity in a GLP study using Salmonella Typhimurium TA97 in presence of S9 fraction at 7.2-3600 ug/plate. The format is toxicity, organism-based. The following applies: salmonella enterica subsp. enterica […].
The test system of series [11] is Salmonella typhi. Briefly: Mutagenic activity in a GLP study using Salmonella Typhimurium TA98 in presence of S9 fraction at 7.2-3600 ug/plate. The following applies: salmonella enterica subsp. enterica […]. The format is toxicity, organism-based.
Series [12] concerns Canis familiaris. Briefly: Contractile response of the antrum in iv dosed fasted dog. The format is functional. The following applies: Canis lupus familiaris.
Series [13] deals with Canis familiaris. Briefly: Effect on solid gastric emptying in iv dosed dog. The format is functional. The following applies: Canis lupus familiaris, Stomach.
Series [14] concerns the target T3, Serotonin 3 (5-HT3) receptor (Rattus norvegicus, UniProt P35563+Q9JJ16).
T3 sequence (P35563 whole entry): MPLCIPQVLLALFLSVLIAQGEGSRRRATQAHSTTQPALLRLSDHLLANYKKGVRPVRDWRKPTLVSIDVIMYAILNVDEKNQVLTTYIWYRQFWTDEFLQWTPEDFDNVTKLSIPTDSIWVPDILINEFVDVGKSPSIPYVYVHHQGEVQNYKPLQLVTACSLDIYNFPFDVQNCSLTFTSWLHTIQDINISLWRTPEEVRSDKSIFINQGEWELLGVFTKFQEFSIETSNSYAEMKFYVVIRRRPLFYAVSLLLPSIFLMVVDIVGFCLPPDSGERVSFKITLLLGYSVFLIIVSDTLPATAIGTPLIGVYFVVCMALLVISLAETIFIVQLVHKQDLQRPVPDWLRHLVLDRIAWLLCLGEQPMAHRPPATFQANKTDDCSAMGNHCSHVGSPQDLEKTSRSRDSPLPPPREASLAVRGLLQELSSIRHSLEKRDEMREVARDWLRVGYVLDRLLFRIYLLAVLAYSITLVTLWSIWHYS
T3 sequence (Q9JJ16 whole entry): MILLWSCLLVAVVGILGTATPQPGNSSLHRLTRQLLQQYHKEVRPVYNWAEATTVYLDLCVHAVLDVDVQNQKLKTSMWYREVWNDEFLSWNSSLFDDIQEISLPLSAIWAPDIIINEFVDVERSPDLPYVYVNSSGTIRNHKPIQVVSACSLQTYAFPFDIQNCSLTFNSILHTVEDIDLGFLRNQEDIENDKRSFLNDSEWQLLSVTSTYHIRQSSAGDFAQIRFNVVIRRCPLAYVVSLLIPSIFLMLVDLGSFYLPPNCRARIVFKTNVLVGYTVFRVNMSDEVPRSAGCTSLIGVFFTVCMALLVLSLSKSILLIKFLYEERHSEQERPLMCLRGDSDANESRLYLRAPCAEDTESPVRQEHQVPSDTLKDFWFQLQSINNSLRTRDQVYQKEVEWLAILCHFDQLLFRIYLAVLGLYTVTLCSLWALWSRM
Briefly: Displacement of [3H]GR65630 from 5HT3 receptor in brain cortex from Wistar rat. The format is tissue-based. In general terms: Loss of bound radioactivity is the signal in a displacement assay; it reports binding, not function.

For series [15], the target named is T1, 5-hydroxytryptamine receptor 4. The series can be described thus: Antagonism at 5HT4 receptor in rat tunica muscularis mucosa. The format is functional, tissue-based. The following applies: read-out: pA2 (converted).

The structures appear in SMILES notation. Bounds are passed on as bounds.

Beta-2 adrenergic receptor, sequence (P07550 whole entry): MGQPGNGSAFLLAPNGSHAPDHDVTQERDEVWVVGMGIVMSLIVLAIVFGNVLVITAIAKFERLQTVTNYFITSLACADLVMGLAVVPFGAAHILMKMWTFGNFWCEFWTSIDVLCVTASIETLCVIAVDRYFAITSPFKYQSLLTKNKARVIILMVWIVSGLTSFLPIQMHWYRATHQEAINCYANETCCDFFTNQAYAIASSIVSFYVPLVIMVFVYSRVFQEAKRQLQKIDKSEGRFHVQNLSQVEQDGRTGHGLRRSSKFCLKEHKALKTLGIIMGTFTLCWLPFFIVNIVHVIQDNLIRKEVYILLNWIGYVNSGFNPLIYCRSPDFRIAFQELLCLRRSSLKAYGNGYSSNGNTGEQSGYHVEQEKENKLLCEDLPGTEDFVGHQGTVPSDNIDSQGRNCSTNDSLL
D(1A) dopamine receptor, sequence (P21728 whole entry): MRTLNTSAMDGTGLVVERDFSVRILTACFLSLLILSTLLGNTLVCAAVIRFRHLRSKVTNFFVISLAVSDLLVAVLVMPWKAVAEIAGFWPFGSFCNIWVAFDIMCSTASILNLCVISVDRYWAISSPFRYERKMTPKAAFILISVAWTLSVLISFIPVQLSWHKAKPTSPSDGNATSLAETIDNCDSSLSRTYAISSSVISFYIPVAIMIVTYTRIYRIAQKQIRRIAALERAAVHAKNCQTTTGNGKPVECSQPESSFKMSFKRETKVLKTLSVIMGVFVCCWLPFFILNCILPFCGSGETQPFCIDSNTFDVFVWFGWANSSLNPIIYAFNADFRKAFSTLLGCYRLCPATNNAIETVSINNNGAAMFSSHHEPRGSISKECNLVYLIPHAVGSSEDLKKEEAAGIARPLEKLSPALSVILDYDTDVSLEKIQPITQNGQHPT

`COc1cc(N)c(Cl)cc1C(=O)NC[C@@H]1CCN2CCC[C@@H]12`: the IC50 (on D(1A) dopamine receptor; in series [1]) was greater than 10000 nM in each case. This compound registered a Ki in series [2] of 5.2 nM. Further, the EC50 in series [3] came to 16.5 nM. Also, the inhibition in [4] was 87%; in series [5] it was 57%; in series [6] it was 7%. Moreover, the result with Salmonella typhi [7], in the series on Salmonella typhi [8], in the series on Salmonella typhi [9], in the series on Salmonella typhi [10] and with Salmonella typhi [11] was Active. In addition, the ED50 with Canis familiaris [12] was 10 µg/kg; in the series with Canis familiaris [13] it was 1 µg/kg.
`O=C(NC[C@@H]1CCN2CCC[C@@H]12)c1cc(Cl)cn2ccnc12`: the IC50 (at D(1A) dopamine receptor; in [1]) was greater than 10000 nM in each case. The inhibition constant (Ki) stood at 259 nM in series [14] and 1.4 nM in series [2]. Further, the EC50 in series [3] was greater than 10000 nM. For the same compound, the Kb in series [15] is 7.41 nM.
For the compound `COc1cc(N)c(Cl)cc1C(=O)N[C@@H]1C2CC3CN(C2)CC31` (some centres undefined), the IC50 (on D(1A) dopamine receptor; in series [1]) was greater than 10000 nM each time. The Ki is 1.2 nM in series [14] and 29 nM in [2].
In the case of `Cn1nc(C(=O)OC[C@@H]2CCN3CCC[C@@H]23)c2ccccc21` (single isomer, unassigned), the IC50 (at D(1A) dopamine receptor; in [1]) was greater than 10000 nM in each case. Also, the results for the Ki in series [14] and in [2] were 20 nM and 0.4 nM, respectively. Besides, the Kb in series [15] was 2.75 nM.
Turning to `O=C(OC[C@@H]1CCN2CCC[C@@H]12)c1[nH]nc2ccccc12` (single isomer, unassigned), the IC50 (on D(1A) dopamine receptor; in series [1]) was greater than 10000 nM throughout. The Ki in series [14] stood at 135 nM; in series [2] it was 0.8 nM. Besides, in series [15], the Kb is 3.31 nM.
Turning to `O=C(OC[C@@H]1CCN2CCC[C@@H]12)c1c[nH]c2ccccc12`, the IC50 (on D(1A) dopamine receptor; in [1]) was greater than 10000 nM throughout. Moreover, the figures for the Ki in series [14] and in [2] were 5 nM and 0.183 nM, respectively. For the same compound, the Kb in [15] was 1.17 nM.

As a reminder, the IC50 is the concentration that gives 50% inhibition. Low readings indicate greater potency in that assay, high ones weaker potency in that assay. By Ki is commonly meant a dissociation constant, usually derived from enzyme kinetics or from competition with a known ligand. A high value points to lower affinity. As a reminder, the EC50 is the concentration that produces a half-maximal response. A lower EC50 goes with greater potency. As a reminder, the inhibition is the share of the control response that was lost under treatment. In general, ED50 refers to the dose at which the effect has come halfway, by size or by number of responders. Read a low ED50 as greater potency.
